Tests used:
[1] = system: matrigel plug angiogenesis; experiment: Mouse matrigel model of angiogenesis (plug hemoglobin); assay type: in vivo, mice (C57BL/6NCr)
Method: Normal male mice (C57BL/6NCr) 6-8 weeks of age and weighing ˜20 g were purchased from Taconic farm. Animals were housed 4 per cage, in controlled conditions of temperature (20-24° C.); humidity (60-70%) and 12 hrs. light/dark cycle provided with food and water ad libitum. […] Aliquots of matrigel were placed into cold polypropylene tubes to prevent the matrigel from solidifying and the angiogenesis promoter added to matrigel with or without agonist. Mice were treated daily. Matrigel was subcutaneously injected as triple injection per animal at 100 μL/animal. At day 14 post plug implant all animals were killed in CO2 chamber and matrigel plugs were collected. Plug hemoglobin content was analyzed from three implants/mice (n=6 per group) to measure angiogenesis.
The matrigel plugs dissected from the mice were carefully stripped of any remaining peritoneum. The plugs were placed into 0.5 mL tube of ddH2O and homogenized for 5-10 min. […] Absorbance was read with a Microplate Manager ELISA reader at 540 nm. […] Hemoglobin concentration is a reflection of the number of blood vessels in the plugs.

[2] = system: MDA-MB-231 cells gene expression; experiment: RNA microarray of MDA-MB-231 cells (Example 17); assay type: cell-based, human; details: 24 h
Method: Expression of ˜54,000 transcripts was analyzed in control and drug-treated cultures, using Affymetrix Human Genome U133 plus 2.0 microarrays. Subsequent analysis was focused on genes affected by treatment at p<0.01. There was 93% concordance between Tetrac and Tetrac NP in terms of genes affected; notable disparities included downregulation of epidermal growth factor receptor (EGFR) by Tetrac NP and no affect of unmodified Tetrac on this gene.

[3] = system: human medullary carcinoma of the thyroid (MTC) xenografts; details: mouse, in vivo
Method: Human medullary carcinoma cells (TT, Catalog No. CRL-1803) were purchased from American Type Culture Collection (Manassas, Va.) and cultured as instructed by the supplier, using a complete growth medium consisting of F-12K medium with 10% FBS. Cells were cultured in 5% CO2/air atmosphere at 37 C to sub-confluence and then treated with 0.25% (w/v) trypsin/EDTA to affect cell release from the culture vessel. After washing with culture medium, the cells were suspended in DMEM (free of phenol red and FBS) and counted. • Tetrac versus tetrac NP distribution in h-MTC. […] Female NCr nude homozygous mice aged 5-6 weeks and body weights of 20 g were purchased form Taconic Farms (Hudson N.Y.). Animals were maintained under specific pathogen-free conditions and housed 4 animals per cage, under controlled conditions of temperature (20-24° C.) and humidity (60-70%) and a 12 h light/dark cycle. Water and food were provided ad libitum.

GL261 cells = experiment: Cell multiplicity (CM) factor after one hour Tetrac exposure; assay type: cell-based, murine; details: after one hour exposure to Tetrac
Method: Cell multiplicity (CM) was determined from Giemsa stained slides by counting the number of cells per microcolony under 20× magnification. At least 400 microcolonies were counted.
The length of time that Tetrac biologically affected GL261 cells was also determined. To do this, the multiplicity relationship defined above was utilized. Tetrac was added to cells one hour prior to the determination of the multiplicity. After the exposure of exponentially growing GL261 cells to Tetrac, the Tetrac containing medium was removed from GL261 cells, which contained an unknown residual and fresh medium (without Tetrac) was added. As a function of time (i.e., 0, 1, 2, 3, 4, 6, 8, and 10 hours, and 1-6 days), the cells, containing an unknown residual amount of remaining Tetrac, were then processed for determination of the multiplicity index (i.e. the number of cells per microcolony).

[4] = system: MDA-MB-231 cells gene expression; experiment: RNA microarray of MDA-MB-231 cells (Example 16); assay type: cell-based, human
Method: MDA-MB-231 cells were purchased from ATCC (Manassas, Va.). Cells were maintained until use in DMEM that contained 10% FBS. The incubator conditions were 5% CO2/95% 02 and 37° C. The action of unmodified Tetrac and nanoparticulate on MDA-MB-231 cells was determined in a perfusion bellows cell culture system we have recently described for quantitating pharmaceutical agent pharmacodynamics in vitro. (See Lin et al., J Steroid Biochem Mol Biol 113: 182-188 (2009)). In brief, the cell culture system is a disposable bioreactor capable of high density cell culture for studies of anti-cancer drugs. Bellows-induced alternate flow of culture medium and air through porous matrices where cells are grown provides a relatively low shear, high aeration, foam-free culture environment. Medium level is raised and lowered to submerge and expose matrices to create a dynamic interface between air and media on the cell surface. Anchorage-dependent cells are grown on plastic flakes in the system. The flakes facilitate harvesting of whole cells for analysis. In the present studies, 5×10^7 cells were seeded in each perfusion flask and incubated at 37 C overnight. Flakes thereafter were sampled at regular intervals (FIG. 44), subjected to trypsinization and the harvested cells counted. When Tetrac or nanoparticulate Tetrac were initially added to the system, flasks contained 20-50×10^6 cells. Cell cultures were re-fed with 1% FBS-containing medium. Studies were carried out in duplicate flasks and replicated once. • Cell culture for harvesting of RNA. MDA-MB-231 cells were maintained in DMEM that was supplemented with 10% FBS in a 5% CO2/95% 02 air incubator at 37° C. For two days prior to exposure to Tetrac and nanoparticulate Tetrac, cells were maintained in 0.25% FBS that was stripped of estrogen and thyroid hormone. (See Lin et al., Biochemistry 42: 7571-7579 (2003)). • RNA microarray and analysis. Microarray analysis experiments were conducted as described previously. (See Glinsky et al., J Clin Invest 115: 1503-1521 (2005); Glinsky et al., J Clin Invest 113: 913-923 (2004); Glinsky et al., Clin Cancer Res 10: 2272-2283 (2004); and Glinsky et al., Mol Carcinog 37: 209-221 (2003)). […] Sample purity and integrity were verified with an Agilent BioAnalyzer (Santa Clara, Calif.). Expression analysis of 54,675 transcripts for each sample was by Affymetrix HG-U133A Plus 2.0 arrays. MAS5.0 software was used for data retrieval and analysis and concordant changes of gene expression in response to unmodified Tetrac and nanoparticulate Tetrac were defined by two-tailed t test at a threshold p value <0.01. Results • Effects of Tetrac and nanoparticulate Tetrac on MDA-MB-231 cell proliferation. […] Unmodified Tetrac at 10^−6M, introduced at day 0, inhibited cell proliferation by more than 30% by day 9. […] Actions shown here of nanoparticulate Tetrac on these pairs of genes are antithetic to tumor cell survival. […] A third pathway affected by the agents was that of the catenins. (See Takemaru et al., Nature 422: 905-909 (2003)). CBY1 is a potent inhibitor of β-catenin and the Wnt/β-catenin system, which are major survival pathways in cancer cells. CBY1 expression was induced by Tetrac and Tetrac NP.

O=C(O)Cc1cc(I)c(Oc2cc(I)c(O)c(I)c2)c(I)c1 [Tetrac, tetraiodothyroacetic acid]
Mean inhibition of angiogenesis (%) ([1]; FGF 100 ng + Tetrac or analog 10 μg/plug): 90 ± 13% | Mean inhibition of angiogenesis (%) ([1]; T4 + antagonist, each 10 μg/matrigel plug): 89 ± 11% | inhibition of FGF induced angiogenesis ([1]; Tetrac 10 μg): 85% | inhibition of FGF induced angiogenesis ([1]; Tetrac 30 μg): 91% | Change: CDKN2C ([2]; 10^−7M (Tetrac equivalent), hormone-stripped serum): ↑ | Change: BCL2L14 ([2]; 10^−7M): ↑ | Change: CASP2 ([2]; 10^−7M): ↑ | Change: CBY1 ([2]; 10^−7M): ↑ | Change: CTNNA1 ([2]; 10^−7M): ↓ | Change: CTNNA2 ([2]; 10^−7M): ↓ | Change: CTSL1 ([2]; 10^−7M): ↓ | Change: CXCL10 ([2]; 10^−7M): ↑ | Change: Cyclins ([2]; 10^−7M): ↓ | Change: EDN1 ([2]; 10^−7M): ↑ | Change: Interleukins ([2]; 10^−7M): ↓ | Change: MCL1 ([2]; 10^−7M): ↓ | Change: NR1D1 ([2]; 10^−7M): ↓ | Change: THBS1 ([2]; 10^−7M): ↑ | Change: XIAP ([2]; 10^−7M): ↓ | epidermal growth factor receptor (EGFR) expression ([2]; 10^−7M): no affect | mortality [3]: no mortality | time at which 50% decrease in the CM factor was recorded (GL261 cells): 60 h | BCL2L14 expression ([4]; MDA-MB-231): not a significant stimulatory action | CASP2 expression ([4]; MDA-MB-231): not a significant stimulatory action | CBY1 expression ([4]; MDA-MB-231): significantly increased | MCL1 expression ([4]; MDA-MB-231): did not significantly affect | THBS1 expression ([4]; MDA-MB-231): upregulation | XIAP expression ([4]; MDA-MB-231): also acted on XIAP | EGFR expression ([4]; MDA-MB-231 (FIG. 50)): ineffective

Source: patent publication US9839614B2, “Nanoparticle and polymer formulations for thyroid hormone analogs, antagonists, and formulations and uses thereof” (NANOPHARMACEUTICALS LLC, priority 2009, dated 2017)
